Legend:
Type in all cases: in vivo
[1] = test system: directly sowed rice plant; assay: Test Example 3: effect on crop by foliage application, Wagner pot (symbol b); details: application herbicide amount 320 g/ha; for b (directly sowed rice plant) effect on crop grade: Table 24
In short: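 Greenhouse culture at 25–30 °C of seeded rice, Cyperus difformis, Leptochloa chinensis and Echinochloa crus-galli var. crus-galli, in alluvial soil held under 0.1–0.5 cm of water in a Wagner pot.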

Digitaria ciliaris [2] = assay: Test Example 4: herbicidal effect by soil treatment (symbol F); details: application herbicide amount 320 g/ha
In short: (§1)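 Seeds were sown in sterilized diluvial soil, covered with about 1.5 cm of soil, and the soil surface was sprayed with a water-diluted emulsion of the compound at a predetermined rate. Plants grew in a greenhouse at 25° C. to 30° C.; effects were scored visually 3 weeks after application.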

[3] = test system: Echinochloa crus-galli var. crus-galli; assay: Test Example 4: herbicidal effect by soil treatment (symbol H); details: application herbicide amount 320 g/ha
In short: as §1

Alopecurus myosuroides = assay: Test Example 4: herbicidal effect by soil treatment (symbol J); details: application herbicide amount 320 g/ha
In short: as §1

Lolium multiflorum Lam. = assay: Test Example 4: herbicidal effect by soil treatment (symbol K); details: application herbicide amount 320 g/ha
In short: as §1

Stellaria media [4] = assay: Test Example 4: herbicidal effect by soil treatment (symbol P); details: application herbicide amount 320 g/ha
In short: as §1

Galium spurium [5] = assay: Test Example 4: herbicidal effect by soil treatment (symbol Q); details: application herbicide amount 320 g/ha
Description: Herbicidal Effect Test by Soil Treatment
Sterilized diluvial soil was placed in a plastic box having a length of 21 cm, a width of 13 cm, and a depth of 7 cm. Each of the seeds of Digitaria ciliaris, Setaria viridis, Echinochloa crus-galli var. crus-galli, Avena fatua, Alopecurus myosuroides, Lolium multiflorum Lam., Apera spica-venti, Abutilon theophrasti, Amaranthus retroflexus, Chenopodium album, Stellaria media, Galium spurium, Veronica persica, corn, soybean, rice, wheat, beet, and rapeseed was sowed in a spot-like manner and was covered with the soil of a thickness of about 1.5 cm. Subsequently, the emulsion agent of the compound present invention prepared in accordance with Formulation Example 2 was diluted with water so as to be a predetermined herbicide amount and the diluted emulsion agent was uniformly applied to the surface of the soil with a small-size spray. The plastic box was placed in a greenhouse of 25° C. to 30° C. to grow plant. 3 weeks later from the herbicide application, the effect to each plant was investigated in accordance with the criteria of Test Example 1.

corn = assay: Test Example 4: effect on crop by soil treatment (symbol c); details: application herbicide amount 320 g/ha
In short: (§2)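 Steps: fill box with sterilized diluvial soil; sow seed spot-like; cover with ~1.5 cm soil; grow in greenhouse (25° C. to 30° C.).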

soybean = assay: Test Example 4: effect on crop by soil treatment (symbol d); details: application herbicide amount 320 g/ha
In short: as §2

rice = assay: Test Example 4: effect on crop by soil treatment (symbol b); details: application herbicide amount 320 g/ha
In short: as §2

beet [6] = assay: Test Example 4: effect on crop by soil treatment (symbol f); details: application herbicide amount 320 g/ha
In short: as §2

rapeseed = assay: Test Example 4: effect on crop by soil treatment (symbol g); details: application herbicide amount 320 g/ha
In short: as §2

Digitaria ciliaris [7] = assay: Test Example 5: herbicidal effect by foliage application, plastic box (symbol F); details: 320 g/ha, 3 weeks after application
In short: (§3)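 After sowing into sterilized diluvial soil and growing two weeks under glass at 25° C. to 30° C., seedlings receive a uniform foliar spray of diluted emulsion. Damage is judged visually three weeks on.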

Setaria viridis = assay: Test Example 5: herbicidal effect by foliage application, plastic box (symbol G); details: 320 g/ha, 3 weeks after application
In short: as §3

Avena fatua = assay: Test Example 5: herbicidal effect by foliage application, plastic box (symbol I); details: 320 g/ha, 3 weeks after application
In short: as §3

Apera spica-venti = assay: Test Example 5: herbicidal effect by foliage application, plastic box (symbol L); details: 320 g/ha, 3 weeks after application
In short: as §3

Abutilon theophrasti = assay: Test Example 5: herbicidal effect by foliage application, plastic box (symbol M); details: 320 g/ha, 3 weeks after application
In short: as §3

Chenopodium album = assay: Test Example 5: herbicidal effect by foliage application, plastic box (symbol O); details: 320 g/ha, 3 weeks after application
In short: as §3

Galium spurium [8] = assay: Test Example 5: herbicidal effect by foliage application, plastic box (symbol Q); details: 320 g/ha, 3 weeks after application
In short: as §3

Veronica persica [9] = assay: Test Example 5: herbicidal effect by foliage application, plastic box (symbol R); details: 320 g/ha, 3 weeks after application
In short: as §3

rice plant = assay: Test Example 5: effect on crop by foliage application, plastic box (symbol b); details: 320 g/ha, 3 weeks after application
In short: (§4)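 Box culture: sterile diluvial soil, seeds spot-sown, ~1.5 cm cover, raised under glass at 25–30° C.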

wheat = assay: Test Example 5: effect on crop by foliage application, plastic box (symbol e); details: 320 g/ha, 3 weeks after application
In short: as §4

beet [10] = assay: Test Example 5: effect on crop by foliage application, plastic box (symbol f); details: 320 g/ha, 3 weeks after application
In short: as §4

Veronica persica [11] = assay: Test Example 4: herbicidal effect by soil treatment (symbol R); details: application herbicide amount 320 g/ha
In short: as §1

Stellaria media [12] = assay: Test Example 5: herbicidal effect by foliage application, plastic box (symbol P); details: 320 g/ha, 3 weeks after application
In short: as §3

Compound	F: Digitaria ciliaris, herbicidal effect grade (Digitaria ciliaris [7])	G: Setaria viridis, herbicidal effect grade (Setaria viridis)	I: Avena fatua, herbicidal effect grade (Avena fatua)	L: Apera spica-venti, herbicidal effect grade (Apera spica-venti)	M: Abutilon theophrasti, herbicidal effect grade (Abutilon theophrasti)	O: Chenopodium album, herbicidal effect grade (Chenopodium album)	Q: Galium spurium, herbicidal effect grade (Galium spurium [8])	R: Veronica persica, herbicidal effect grade (Veronica persica [9])	b: directly sowed rice plant, effect on crop grade (rice plant)	e: wheat, effect on crop grade (wheat)	f: beet, effect on crop grade (beet [10])	b (directly sowed rice plant) effect on crop grade [1]	Herbicidal effect grade, F: Digitaria ciliaris (Digitaria ciliaris [2])	Herbicidal effect grade, H: Echinochloa crus-galli var. crus-galli [3]	Herbicidal effect grade, J: Alopecurus myosuroides (Alopecurus myosuroides)	Herbicidal effect grade, K: Lolium multiflorum Lam. (Lolium multiflorum Lam.)	Herbicidal effect grade, P: Stellaria media (Stellaria media [4])	Herbicidal effect grade, R: Veronica persica (Veronica persica [11])	Effect on crop grade, c: corn (corn)	Effect on crop grade, d: soybean (soybean)	other results
CON=C(C)CC1CC(OC(=O)C(C)(C)C)=C(c2c(C)cc(C)cc2C)C1=O (centres unmarked) [1-004, 2-mesityl-4-{2-(methoxyimino)propyl}-3-oxocyclopent-1-en-1-yl pivalate]	5 (Herbicidal ratio of 90% or more (almost completely withered))	5 (Herbicidal ratio of 90% or more (almost completely withered))	5 (Herbicidal ratio of 90% or more (almost completely withered))	5 (Herbicidal ratio of 90% or more (almost completely withered))	4 (Herbicidal ratio of 70% or higher and lower than 90%)	3 (Herbicidal ratio of 40% or higher and lower than 70%)	3 (Herbicidal ratio of 40% or higher and lower than 70%)	4 (Herbicidal ratio of 70% or higher and lower than 90%)	5 (Herbicidal ratio of 90% or more (almost completely withered))	5 (Herbicidal ratio of 90% or more (almost completely withered))	3 (Herbicidal ratio of 40% or higher and lower than 70%)										effect on crop b (directly sowed rice plant), grade 0-5 [1]: 5 (Herbicidal ratio of 90% or more (almost completely withered)); F (Digitaria ciliaris) herbicidal effect grade (Digitaria ciliaris [2]): 5 (Herbicidal ratio of 90% or more (almost completely withered)); H (Echinochloa crus-galli var. crus-galli) herbicidal effect grade [3]: 5 (Herbicidal ratio of 90% or more (almost completely withered)); J (Alopecurus myosuroides) herbicidal effect grade (Alopecurus myosuroides): 5 (Herbicidal ratio of 90% or more (almost completely withered)); K (Lolium multiflorum Lam.) herbicidal effect grade (Lolium multiflorum Lam.): 5 (Herbicidal ratio of 90% or more (almost completely withered)); P (Stellaria media) herbicidal effect grade (Stellaria media [4]): 0 (Herbicidal ratio of 5% or lower (almost no effect)); Q (Galium spurium) herbicidal effect grade (Galium spurium [5]): 0 (Herbicidal ratio of 5% or lower (almost no effect)); c (corn) effect on crop grade (corn): 4 (Herbicidal ratio of 70% or higher and lower than 90%); d (soybean) effect on crop grade (soybean): 3 (Herbicidal ratio of 40% or higher and lower than 70%); b (directly sowed rice plant) effect on crop grade (rice): 5 (Herbicidal ratio of 90% or more (almost completely withered)); f (beet) effect on crop grade (beet [6]): 4 (Herbicidal ratio of 70% or higher and lower than 90%); g (rapeseed) effect on crop grade (rapeseed): 4 (Herbicidal ratio of 70% or higher and lower than 90%)
COCCON=C(CC1CC(O)=C(c2c(C)cc(Br)cc2C)C1=O)C1CC1 (centres unmarked) [9-019]	4 (Herbicidal ratio of 70% or higher and lower than 90%)	5 (Herbicidal ratio of 90% or more (almost completely withered))	4 (Herbicidal ratio of 70% or higher and lower than 90%)	1 (Herbicidal ratio of 5% or higher and lower than 20%)	0 (Herbicidal ratio of 5% or lower (almost no effect))	0 (Herbicidal ratio of 5% or lower (almost no effect))	0 (Herbicidal ratio of 5% or lower (almost no effect))	0 (Herbicidal ratio of 5% or lower (almost no effect))	3 (Herbicidal ratio of 40% or higher and lower than 70%)	0 (Herbicidal ratio of 5% or lower (almost no effect))	0 (Herbicidal ratio of 5% or lower (almost no effect))	5 (Herbicidal ratio of 90% or more (almost completely withered))	0 (Herbicidal ratio of 5% or lower (almost no effect))	0 (Herbicidal ratio of 5% or lower (almost no effect))	5 (Herbicidal ratio of 90% or more (almost completely withered))	3 (Herbicidal ratio of 40% or higher and lower than 70%)	0 (Herbicidal ratio of 5% or lower (almost no effect))	0 (Herbicidal ratio of 5% or lower (almost no effect))	0 (Herbicidal ratio of 5% or lower (almost no effect))	0 (Herbicidal ratio of 5% or lower (almost no effect))	Effect on crop grade, b: directly sowed rice plant (rice): 5 (Herbicidal ratio of 90% or more (almost completely withered)); Effect on crop grade, f: beet (beet [6]): 0 (Herbicidal ratio of 5% or lower (almost no effect)); Effect on crop grade, g: rapeseed (rapeseed): 0 (Herbicidal ratio of 5% or lower (almost no effect)); P: Stellaria media, herbicidal effect grade (Stellaria media [12]): 0 (Herbicidal ratio of 5% or lower (almost no effect))
COCCON=C(CC1CC(O)=C(c2c(C)cc(-n3cc(Cl)cn3)cc2C)C1=O)C(C)C (centres unmarked) [9-022]	5 (Herbicidal ratio of 90% or more (almost completely withered))	5 (Herbicidal ratio of 90% or more (almost completely withered))	0 (Herbicidal ratio of 5% or lower (almost no effect))	2 (Herbicidal ratio of 20% or higher and lower than 40%)	0 (Herbicidal ratio of 5% or lower (almost no effect))	0 (Herbicidal ratio of 5% or lower (almost no effect))	0 (Herbicidal ratio of 5% or lower (almost no effect))	0 (Herbicidal ratio of 5% or lower (almost no effect))	5 (Herbicidal ratio of 90% or more (almost completely withered))	0 (Herbicidal ratio of 5% or lower (almost no effect))	0 (Herbicidal ratio of 5% or lower (almost no effect))	5 (Herbicidal ratio of 90% or more (almost completely withered))	5 (Herbicidal ratio of 90% or more (almost completely withered))	5 (Herbicidal ratio of 90% or more (almost completely withered))	0 (Herbicidal ratio of 5% or lower (almost no effect))	0 (Herbicidal ratio of 5% or lower (almost no effect))	0 (Herbicidal ratio of 5% or lower (almost no effect))	0 (Herbicidal ratio of 5% or lower (almost no effect))	1 (Herbicidal ratio of 5% or higher and lower than 20%)	0 (Herbicidal ratio of 5% or lower (almost no effect))	Effect on crop grade, b: directly sowed rice plant (rice): 4 (Herbicidal ratio of 70% or higher and lower than 90%); Effect on crop grade, f: beet (beet [6]): 0 (Herbicidal ratio of 5% or lower (almost no effect)); Effect on crop grade, g: rapeseed (rapeseed): 0 (Herbicidal ratio of 5% or lower (almost no effect)); P: Stellaria media, herbicidal effect grade (Stellaria media [12]): 0 (Herbicidal ratio of 5% or lower (almost no effect))

Reference: US11000033B2, “Ketone or oxime compound, and herbicide” (NISSAN CHEMICAL CORPORATION, priority 2014, dated 2021)
